Patent US8048924B2, “Methods and compositions employing 4-aminophenylacetic acid compounds” (Biocon Limited, priority 2001, dated 2011)
Where “and” joins values, the source holds several entries; their conditions need not be identical. Identical values can stand only once.

Columns and labels:
[1] = Single oral dose plasma pharmacokinetics and elimination of APAZA and metabolites in mice; assay type: in vivo, male CD-1 mice
Experimental: Initial single dose pharmacokinetic studies with the APAZA™ compound have been conducted in dogs and mice. A study was completed in order to determine the plasma pharmacokinetics and elimination of the APAZA™ compound and its metabolites (5-ASA, 4-APAA, 5-aceASA and 4-aceAPAA) following single oral dose administration to male CD-1 mice. […] When normalized to molar values, the Cmax values for all the APAZA™ metabolites were less than APAZA™; the values ranged from 2.68 to 13.8 μM. However, the normalized APAZA™ AUC∞ value was not greater than all the other metabolites; these values ranged from […]. […] The Tmax values for APAZA™ and its metabolites were 1 hour and 4 hours, respectively.

DNBS colitis = DNBS colitis in the rat, equimolar rectal doses of 5-ASA, 4-APAA and mixture; assay type: in vivo, male Lewis rats; settings: for average severity score for necrosis, Adventitia / average severity score for necrosis, Mucosa / average severity score for necrosis, Muscularis / average severity score for necrosis, Submucosa: colon histology, scale 1-5, intrarectal twice daily for four days; for reduction in colon:body weight [% BW] / reduction of adhesion scores: rectal b.i.d. 4 days; for reduction in colon:body weight [% BW]: 5-ASA 50 mg/kg, 4-APAA 49.5 mg/kg, mixture 50+49.5 mg/kg; for reduction of adhesion scores: vs vehicle/DNBS
Description: The purpose of this study was to histologically evaluate and compare the effects of three different therapeutic agents administered intrarectally (twice daily for four days) to male Lewis rats following intrarectal administration of dinitrobenzene sulfonic acid (DNBS). DNBS induced colitis in rats according to an established experimental model (see, for example, Bertran et al., “Intracolonic administration of zileuton, a selective 5-lipoxygenase inhibitor, accelerates healing in a rat model of chronic colitis,” Gut. 38(6):899-904 (1996), and Blau et al., “Relation between colonic inflammation severity and total low-molecular-weight antioxidant profiles in experimental colitis,” Dig Dis Sci. 45(6):1180-1187 (2000), the entire disclosures of which are incorporated herein by reference). SHAM and DNBS groups served as negative and positive controls, respectively.
Trimmed specimens of colon from 27 male rats were tested, including microtoming, and hematoxylin and eosin staining. The resulting 27 slides (1 transverse section per slide) were examined microscopically. Except for one rat from the SHAM group and one rat from the DNBS group, all slides had their labels taped over to facilitate blind reading. Lesions were graded on a scale of 1-5 (1=minimal; 2=mild; 3=moderate; 4=moderately-severe; 5=severe).
Because the pattern of necrosis often varied from section to section, the individual intestinal layers were scored separately.
Dinitrobenzene sulfonic acid (DNBS) colitis was induced (no ether anesthesia) in 4 groups 4 of 6 Lewis rats each. One DNBS group was dosed with vehicle (0.7% methyl cellulose) as well as an additional sham group of 6 animals that received a saline enema instead of DNBS. Intrarectal (ir) dosing was performed in conscious animals b.i.d. for 4 days. Drug treatments were as follows: • 5-aminosalicylic acid (5-ASA): 50 mg/kg • 4-aminophenylacetic acid (4-APAA): 49.5 mg/kg (equimolar to 5-ASA) • Mixture: 5-ASA+4-APAA: 50 mg/kg+49.5 mg/kg
Drugs were suspended in the above mentioned vehicle and staff blinded to drug groups. Daily weights and diarrhea scores were recorded. On the 5th day post-irritant rats were sacrificed, laparotomies performed and scored for intestinal adhesions and strictures; colectomized and colon weights recorded, colons opened longitudinally and inflammation/ulcerations scored.
The anti-inflammatory effects of 3 different treatments were compared in a DNBS model of colitis in 30 male Lewis rats weighing between 218 and 260 grams.
Animals were divided into 5 groups of 6 animals in each group: • 0.7% methylcellulose (vehicle)+normal saline • 0.7% methylcellulose (vehicle)+ethanolic solution of 2,4-dinitrobenzenesulfonic acid (DNBS) 30 mg • 5-ASA at 100 mg/kg·day+DNBS 30 mg/rectally • 4-APAA at 99 mg/kg·day+DNBS 30 mg/rectally • 5-ASA+4-APAA mixture (APAZA™) at 199 mg/kg·day+DNBS 30 mg/rectally
Experimental colitis was induced under light anesthesia (ketamine/xylazine) in 4 of 5 groups by instilling DNBS (30 mg) rectally at a volume of 0.5 mL to fasted rats. Each group of animals received rectal twice daily (bid) doses of either vehicle (0.7% methylcellulose) or test compounds (5-ASA, 4-APAA or APAZA™) for 4 days beginning 24 hours after either the normal saline or DNBS irritant was instilled. Body weight and incidence of diarrhea were recorded daily. Each animal in the 4 DNBS groups and in the single parallel saline group was sacrificed 5 days post irritant. Laparotomies and colectomies were performed and animals were scored for the presence and severity of intestinal adhesions, strictures, inflammation, and ulceration. Colon: body weight ratios were determined and tissue was examined histologically.

[2] = Metabolism of APAZA and sulfasalazine following oral delivery to rats (urine and feces, HPLC); settings: rat
Experimental: The degradation of the APAZA™ therapeutic agent (5-(4-carboxymethyl-phenylazo)-2-hydroxy-benzoic acid), and sulfasalazine (used as a control) and the generation of their metabolites when these compounds were orally dosed to rats were measured to be able to confirm that both the APAZA™ therapeutic agent and sulfasalazine undergo bacterial azo reduction and yield their metabolites, 5-aniinosalicylic acid (5-ASA) and sulfapyridine for sulfasalazine, 5-aminosalicylic acid (5-ASA) and 4-aminophenyl acetic acid (4-APAA) for the APAZA™ therapeutic agent.
This experiment was performed to confirm that an azo compound, the APAZA™ therapeutic agent, undergoes a bacterial reduction process and yields its metabolites in in-vivo metabolism. The quantification of its metabolites was also carried out. Sulfasalazine, not part of the present invention, was used as a control since similar azo bond cleavage by bacteria occurs with it, which results in 5-aminosalicylic acid and sulfapyridine as its metabolites. Both the APAZA™ therapeutic agent and sulfasalzine were degraded and their metabolites were produced as expected.
A total of 8 rats were used for the experiment and methylcellulose was used as a vehicle. The dosage amount was 100 mg/kg per rat. […] Both urine and feces were collected over 4 days and analyzed by HPLC. […]

Nc1ccc(CC(=O)O)cc1 [4-APAA, (4-aminophenyl)-acetic acid]
plasma concentration at 24 hours ([1]; single oral dose of APAZA, male CD-1 mice): below the limit of detection
average severity score for necrosis, Adventitia (DNBS colitis): 1.67
average severity score for necrosis, Mucosa (DNBS colitis): 4.33
average severity score for necrosis, Muscularis (DNBS colitis): 3.17
average severity score for necrosis, Submucosa (DNBS colitis): 4.00
reduction in colon:body weight [% BW] (DNBS colitis): ~31% and ~30%
reduction of adhesion scores (DNBS colitis): ~25%

Nc1ccc(O)c(C(=O)O)c1 [5-ASA, 5-amino-2-hydroxy-benzoic acid, reference compound]
conversion of 5-ASA in vivo [2]: quickly converted to acetylated 5-ASA
average severity score for necrosis, Adventitia (DNBS colitis): 1.67
average severity score for necrosis, Mucosa (DNBS colitis): 4.50
average severity score for necrosis, Muscularis (DNBS colitis): 3.5
average severity score for necrosis, Submucosa (DNBS colitis): 4.17
reduction in colon:body weight [% BW] (DNBS colitis): ~31% and ~30%
reduction of adhesion scores (DNBS colitis): ~17%

O=C(O)Cc1ccc(/N=N/c2ccc(O)c(C(=O)O)c2)cc1 [APAZA™, 5-(4-carboxymethyl-phenylazo)-2-hydroxy-benzoic acid]
AUC(0-inf) ([1]; male, CD-1, mouse, in vivo, po): 7430 ng·h/mL
Cmax ([1]; male, CD-1, mouse, in vivo, po): 5930 ng/mL
Tmax ([1]; male, CD-1, mouse, in vivo, po): 1 h
half-life ([1]; male, CD-1, mouse, in vivo, po): 3.34 h
plasma concentration at 24 hours ([1]; mouse, in vivo, po): below the limit of detection
